According to PubChem BioAssay (NCI):
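Dose response: 5 concentrations. Exposure: 48 h. Format: 96-well plates. Endpoint: linear interpolation; highest concentration if not reached. The concentration for 50% growth inhibition is given as GI50. TGI denotes the concentration required for complete inhibition of growth.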

Experiments:
Assay in all cases: inhibition of tumour cell growth, NCI panel, 48 h
[1] = tested on: COLO 205 colon
[2] = tested on: UO-31 renal
[3] = tested on: MCF7 breast
[4] = tested on: MDA-MB-435
[5] = tested on: U251 CNS
[6] = tested on: HL-60(TB) leukemia
[7] = tested on: HT29 colon
[8] = tested on: BT-549 breast
[9] = tested on: SK-MEL-5 melanoma
[10] = tested on: NCI-H226 lung
[11] = tested on: OVCAR-5 ovarian
[12] = tested on: UACC-257 melanoma
[13] = tested on: SK-MEL-2 melanoma
[14] = tested on: SF-539 CNS
[15] = tested on: TK-10 renal
[16] = tested on: NCI/ADR-RES ovarian
[17] = tested on: SNB-19 CNS
[18] = tested on: HCT-15 colon
[19] = tested on: OVCAR-3 ovarian
[20] = tested on: LOX IMVI melanoma
[21] = tested on: A498 renal
[22] = tested on: SN12C renal
[23] = tested on: DU-145 prostate
[24] = tested on: A549 NSCLC
[25] = tested on: MOLT-4 leukemia
[26] = tested on: SK-MEL-28 melanoma
[27] = tested on: M14 melanoma
[28] = tested on: SNB-75 CNS
[29] = tested on: HCC-2998 colon
[30] = tested on: CAKI-1 renal
[31] = tested on: RXF 393 renal
[32] = tested on: SK-OV-3 ovarian
[33] = tested on: CCRF-CEM leukemia
[34] = tested on: 786-0 renal
[35] = tested on: ACHN renal
[36] = tested on: HS 578T breast
[37] = tested on: RPMI-8226 leukemia
[38] = tested on: HOP-62 NSCLC
[39] = tested on: SF-295 CNS
[40] = tested on: EKVX NSCLC
[41] = tested on: NCI-H522 lung
[42] = tested on: NCI-H23 lung
[43] = tested on: MDA-MB-231 breast
[44] = tested on: PC-3 prostate
[45] = tested on: HCT-116 colon
[46] = tested on: NCI-H460 lung
[47] = tested on: HOP-92 NSCLC
[48] = tested on: OVCAR-4 ovarian
[49] = tested on: SF-268 CNS
[50] = tested on: KM12 colon
[51] = tested on: OVCAR-8 ovarian
[52] = tested on: T-47D breast
[53] = tested on: UACC-62 melanoma
[54] = tested on: K-562 leukemia
[55] = tested on: SW-620 colon
[56] = tested on: MALME-3M melanoma

Question: Which results are given for `COc1cc2c3c(n(CCCN=[N+]=[N-])c(=O)c2cc1OC)-c1ccc(C#N)cc1C3=O`?
Answer: GI50 [1]: 92.3 µM; TGI [1]: > 100 µM; GI50 [2]: > 100 µM; TGI [2]: > 100 µM; GI50 [3]: > 100 µM; TGI [3]: > 100 µM; GI50 [4]: > 100 µM; TGI [4]: > 100 µM; GI50 [5]: 10.5 µM; TGI [5]: 27.6 µM; GI50 [6]: > 100 µM; TGI [6]: > 100 µM; GI50 [7]: > 100 µM; TGI [7]: > 100 µM; GI50 [8]: 12.9 µM; TGI [8]: 28 µM; GI50 [9]: > 100 µM; TGI [9]: > 100 µM; GI50 [10]: 42.1 µM; TGI [10]: > 100 µM; GI50 [11]: 88.7 µM; TGI [11]: > 100 µM; GI50 [12]: > 100 µM; TGI [12]: > 100 µM; GI50 [13]: 16.6 µM; TGI [13]: 86.1 µM; GI50 [14]: 17.4 µM; TGI [14]: 47.2 µM; GI50 [15]: 17 µM; TGI [15]: 34.9 µM; GI50 [16]: 72.4 µM; TGI [16]: > 100 µM; GI50 [17]: 37 µM; TGI [17]: > 100 µM; GI50 [18]: 57.9 µM; TGI [18]: > 100 µM; GI50 [19]: 17 µM; TGI [19]: 58.2 µM; GI50 [20]: 16.9 µM; TGI [20]: 46 µM; GI50 [21]: 18.5 µM; TGI [21]: 58.5 µM; GI50 [22]: 15.7 µM; TGI [22]: > 100 µM; GI50 [23]: 34.3 µM; TGI [23]: > 100 µM; GI50 [24]: > 100 µM; TGI [24]: > 100 µM; GI50 [25]: > 100 µM; TGI [25]: > 100 µM; GI50 [26]: > 100 µM; TGI [26]: > 100 µM; GI50 [27]: 46.7 µM; TGI [27]: > 100 µM; GI50 [28]: 4.27 µM; TGI [28]: 21.4 µM; GI50 [29]: 44.6 µM; TGI [29]: > 100 µM; GI50 [30]: 32 µM; TGI [30]: > 100 µM; GI50 [31]: 12.2 µM; TGI [31]: 30.2 µM; GI50 [32]: 15.5 µM; TGI [32]: 40.3 µM; GI50 [33]: > 100 µM; TGI [33]: > 100 µM; GI50 [34]: 13.1 µM; TGI [34]: 33.7 µM; GI50 [35]: 3.3 µM; TGI [35]: 13.1 µM; GI50 [36]: 9.67 µM; TGI [36]: 38.9 µM; GI50 [37]: > 100 µM; TGI [37]: > 100 µM; GI50 [38]: 14.2 µM; TGI [38]: 33.3 µM; GI50 [39]: 14.1 µM; TGI [39]: 31.5 µM; GI50 [40]: 28.9 µM; TGI [40]: > 100 µM; GI50 [41]: 14.5 µM; TGI [41]: > 100 µM; GI50 [42]: 8.75 µM; TGI [42]: 22 µM; GI50 [43]: 2.93 µM; TGI [43]: 16.2 µM; GI50 [44]: > 100 µM; TGI [44]: > 100 µM; GI50 [45]: 24.1 µM; TGI [45]: > 100 µM; GI50 [46]: 27.7 µM; TGI [46]: > 100 µM; GI50 [47]: 21.2 µM; TGI [47]: 79.1 µM; GI50 [48]: > 100 µM; TGI [48]: > 100 µM; GI50 [49]: 17.7 µM; TGI [49]: > 100 µM; GI50 [50]: > 100 µM; TGI [50]: > 100 µM; GI50 [51]: 49.1 µM; TGI [51]: > 100 µM; GI50 [52]: > 100 µM; TGI [52]: > 100 µM; GI50 [53]: 12.4 µM; TGI [53]: 37.4 µM; GI50 [54]: > 100 µM; TGI [54]: > 100 µM; GI50 [55]: > 100 µM; TGI [55]: > 100 µM; GI50 [56]: 70.8 µM; TGI [56]: > 100 µM
